# Reference: patent US11572359B2, “PARP/PI3K double-target inhibit containing pyridopyrimidine structure” (CHINA PHARMACEUTICAL UNIVERSITY, priority 2017, dated 2023)
# pIC50: −log10 of the molar value. Read-outs that look alike come from different tables or passages of the source.
# Experiments:
# PARP-1 = PARP-1 (Homo sapiens, UniProt P09874); assay: PARP-1 inhibitory activity at the enzyme level (histone-coated plate, chemiluminescence); assay type: biochemical; conditions: for inhibition at 0.01 µM: 10 nM compound, read-out: Inhibition rate on PARP-1 (10 nM)
# Sequence of PARP-1 (P09874 whole entry): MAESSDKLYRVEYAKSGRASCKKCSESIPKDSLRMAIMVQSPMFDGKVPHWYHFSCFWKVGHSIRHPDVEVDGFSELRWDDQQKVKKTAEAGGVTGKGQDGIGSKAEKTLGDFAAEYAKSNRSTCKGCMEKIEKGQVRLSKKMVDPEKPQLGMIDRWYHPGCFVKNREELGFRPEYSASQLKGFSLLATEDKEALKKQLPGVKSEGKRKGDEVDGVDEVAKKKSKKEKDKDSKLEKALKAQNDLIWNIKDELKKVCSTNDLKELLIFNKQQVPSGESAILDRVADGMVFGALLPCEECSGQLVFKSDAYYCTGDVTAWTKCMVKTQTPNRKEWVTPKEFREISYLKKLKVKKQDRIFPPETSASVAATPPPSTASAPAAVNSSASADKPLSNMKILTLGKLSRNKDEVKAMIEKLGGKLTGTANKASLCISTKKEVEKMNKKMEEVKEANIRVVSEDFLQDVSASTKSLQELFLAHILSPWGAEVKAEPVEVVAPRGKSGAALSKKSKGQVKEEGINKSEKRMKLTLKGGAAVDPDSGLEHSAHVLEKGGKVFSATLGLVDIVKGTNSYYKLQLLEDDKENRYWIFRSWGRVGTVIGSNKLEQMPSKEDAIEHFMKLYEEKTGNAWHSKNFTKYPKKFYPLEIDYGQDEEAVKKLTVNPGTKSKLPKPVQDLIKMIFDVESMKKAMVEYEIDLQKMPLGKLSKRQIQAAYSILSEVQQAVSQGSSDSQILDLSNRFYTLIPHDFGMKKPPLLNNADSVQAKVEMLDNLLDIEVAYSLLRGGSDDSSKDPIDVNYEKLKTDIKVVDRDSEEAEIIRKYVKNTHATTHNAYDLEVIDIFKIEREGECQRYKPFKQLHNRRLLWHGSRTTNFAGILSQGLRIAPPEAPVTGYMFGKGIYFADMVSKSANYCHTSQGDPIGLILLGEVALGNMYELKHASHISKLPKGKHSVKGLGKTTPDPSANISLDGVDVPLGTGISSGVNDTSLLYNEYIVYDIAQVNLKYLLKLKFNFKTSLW
# Description: Experimental method for PARP-1 inhibitory activity: taking out a 96-well plate pre-coated with histones, and adding a following enzyme reaction system and inhibitors of different concentrations into each well, including: 50 μL of a reaction buffer solution (Tris*HCl, pH 8.0), NAD^+, biotin-labeled activated DNA, PARP-1 enzyme, and an inhibitor; after reaction at a room temperature for 1 hour, adding 50 uL of avidin-labeled HRP into each well for reaction for 30 minutes; and then adding 100 μL of an HRP substrate, and detecting a chemiluminescence value on a SpectraMax M instrument. The percentage of enzyme activity is calculated by the following formula: Enzyme activity percentage (%)=(OD value administration hole-OD value background)/(OD value control hole−OD value background)×100%
# (§1) Method for determining IC50 of PARP-1 and PI3Kα: diluting a drug concentration according to a three-fold concentration gradient, and detecting two duplicate wells at each concentration; taking the drug concentration as the abscissa and the percentage of enzyme activity corresponding to each concentration as the ordinate, and calculating to obtain inhibition IC50 values of all tested compounds by using Graphpad Prism5 for nonlinear regression.
# PI3Kα = PI3Kα (Homo sapiens, UniProt P42336); assay: PI3Kα inhibitory activity at the enzyme level (ADP detection by luciferase method); assay type: biochemical; conditions: for inhibition at 0.1 µM: 100 nM compound, read-out: Inhibition rate on PI3Kα (100 nM)
# Sequence of PI3Kα (P42336 whole entry): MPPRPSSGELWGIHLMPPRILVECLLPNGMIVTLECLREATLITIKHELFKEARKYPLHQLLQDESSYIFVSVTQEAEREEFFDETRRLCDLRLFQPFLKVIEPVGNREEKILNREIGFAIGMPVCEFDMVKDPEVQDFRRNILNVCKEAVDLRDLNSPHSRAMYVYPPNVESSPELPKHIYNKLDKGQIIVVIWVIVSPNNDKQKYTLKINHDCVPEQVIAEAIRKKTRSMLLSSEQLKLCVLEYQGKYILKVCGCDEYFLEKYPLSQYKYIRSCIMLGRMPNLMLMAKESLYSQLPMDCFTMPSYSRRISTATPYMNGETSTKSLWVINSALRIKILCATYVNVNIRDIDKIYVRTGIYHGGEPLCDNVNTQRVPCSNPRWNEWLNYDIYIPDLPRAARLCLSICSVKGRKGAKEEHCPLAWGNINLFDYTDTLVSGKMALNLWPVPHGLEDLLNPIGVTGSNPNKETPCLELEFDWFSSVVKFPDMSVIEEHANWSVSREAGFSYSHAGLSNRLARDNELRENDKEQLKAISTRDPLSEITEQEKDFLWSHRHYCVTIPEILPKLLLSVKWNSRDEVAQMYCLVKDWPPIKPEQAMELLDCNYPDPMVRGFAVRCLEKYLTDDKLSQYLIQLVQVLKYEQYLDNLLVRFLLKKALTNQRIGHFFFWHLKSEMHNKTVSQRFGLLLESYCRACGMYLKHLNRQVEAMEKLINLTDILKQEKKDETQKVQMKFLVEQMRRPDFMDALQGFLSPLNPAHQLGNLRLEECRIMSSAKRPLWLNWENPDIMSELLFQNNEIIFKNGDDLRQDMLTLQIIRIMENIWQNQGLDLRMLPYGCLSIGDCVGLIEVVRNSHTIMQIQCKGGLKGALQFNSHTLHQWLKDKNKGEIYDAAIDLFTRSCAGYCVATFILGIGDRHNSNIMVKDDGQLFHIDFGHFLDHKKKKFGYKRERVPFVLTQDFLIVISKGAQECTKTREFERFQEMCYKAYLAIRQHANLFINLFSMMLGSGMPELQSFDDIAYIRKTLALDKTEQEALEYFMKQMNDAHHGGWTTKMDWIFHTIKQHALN
# Sequence of PI3Kα (P27986 whole entry partner): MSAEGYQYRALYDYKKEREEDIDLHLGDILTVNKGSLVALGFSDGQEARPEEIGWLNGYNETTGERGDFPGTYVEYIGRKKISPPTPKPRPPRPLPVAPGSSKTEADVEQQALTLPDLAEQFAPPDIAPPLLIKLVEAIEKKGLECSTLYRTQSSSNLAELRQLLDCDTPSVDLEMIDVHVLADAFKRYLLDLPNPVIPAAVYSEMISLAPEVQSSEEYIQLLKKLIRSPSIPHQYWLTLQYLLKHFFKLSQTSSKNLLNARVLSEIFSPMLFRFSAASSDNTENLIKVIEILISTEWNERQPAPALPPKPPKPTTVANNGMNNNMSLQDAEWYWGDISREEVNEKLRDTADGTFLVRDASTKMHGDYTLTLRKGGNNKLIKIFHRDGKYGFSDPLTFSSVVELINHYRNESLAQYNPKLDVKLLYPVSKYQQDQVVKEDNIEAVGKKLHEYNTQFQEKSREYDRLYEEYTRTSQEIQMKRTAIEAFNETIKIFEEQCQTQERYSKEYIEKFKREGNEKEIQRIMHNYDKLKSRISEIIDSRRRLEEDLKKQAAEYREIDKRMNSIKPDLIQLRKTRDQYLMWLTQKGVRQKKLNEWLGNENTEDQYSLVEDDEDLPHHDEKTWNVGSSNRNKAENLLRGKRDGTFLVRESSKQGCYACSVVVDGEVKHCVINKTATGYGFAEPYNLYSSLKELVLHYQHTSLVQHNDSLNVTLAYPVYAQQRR
# Description: Experimental method for PI3Kα inhibitory activity: simultaneously adding 40 mM Tris, pH 7.4, 10 mM MgCl2, 0.1 mg/ml BSA, 1 mM DTT, 10 μM ATP, PI3Kα kinase and a kinase substrate into different concentrations of compounds to be sieved to form a 50 μL reaction system, after reaction at 30° C. for 40 minutes, detecting an ADP content in the system through a luciferase method, and then after reaction for 5 minutes, detecting a chemiluminescence signal on an MD-SpectraMax M5 multi-function microplate reader, wherein the intensity of a value of the chemiluminescence signal is in direct proportion to […]. The detected value of the chemiluminescence signal is substituted into the following formula: Enzyme activity percentage (%)=(OD value administration hole-OD value background)/(OD value control hole−OD value background)×100%
# as §1
# [1] = system: MDA-MB-468 (human breast cancer cells); assay: Tumor cell proliferation inhibition (SRB, 72 hours), MDA-MB-468; assay type: cell-based
# Description: Inoculating HCT116 (human colon cancer cells), HCC1937 (human breast cancer cells), MDA-MB-231 (human breast cancer cells) and MDA-MB-468 (human breast cancer cells) in a logarithmic growth phase with a certain quantity in a 96-well plate (200 μL/well) for culture for 24 hours so as to adhere to walls and then adding drugs. Arranging 3 duplicate wells for each drug concentration, and setting corresponding zero-cut holes and blank controls. After 72 hours of drug action, adding 50% TCA (50 μL/well) into adherent cells, fixing at 4° C. for 1 hour, pouring a fixing solution, washing for 5 times with distilled water, and naturally drying. Adding 100 μL of 4 mg/mL SRB into each well, staining at a room temperature for 15 minutes, discarding, washing for 5 times with 1% glacial acetic acid, and naturally drying. Finally, adding 150 μL of a 10 mM Tris solution into each well, shaking to be uniform, and measuring OD values at a wavelength of 565 nm using a wavelength-adjustable microplate reader (VERSAmax™, Molecular Device).
# [2] = system: Human Breast Cancer MDA-MB-468 Cell Nude Mice Xenograft; assay: Growth of human breast cancer MDA-MB-468 cell nude mice xenograft; assay type: in vivo; conditions: abdominal cavity, once every 2 days; for Tumor weights: after 34 days, in g (unit assumed)
# Description: Preparing an MDA-MB-468 cell line in a logarithmic growth phase into a 2×10^7/mL cell suspension under sterile conditions, and inoculating 0.1 mL of the cell suspension under the skin of the right axilla of each nude mouse. Measuring the diameter of a nude mice xenograft with a vernier caliper, and randomly dividing the animals into groups after the tumors grew to about 100 mm^3. Dynamically observing an anti-tumor effect of the tested animals using a method of measuring the tumor diameter, wherein the frequency of measurements of the tumor diameter is once every 2 days, and the administration volume is 0.4 mL/20 g. After 34 days, killing the mice and surgically removing and weighing tumor pieces. The formula for calculating tumor volume (TV) is: TV=½×a×b^2, wherein a and b represent the length and the width respectively.
smiles,measurement,setting,value
"Nc1ncc(-c2nc3c(c(N4CCOCC4)n2)CCN(C(=O)c2cc(Cc4n[nH]c(=O)c5ccccc45)ccc2F)C3)cc1C(F)(F)F [I-5, 4-(3-(2-(6-amino-5-(trifluoromethyl)pyridin-3-yl)-4-morpholinyl-5,6,7,8-tetrahydropyrido [3,4-d]pyrimidin-7-formyl)-4-fluorobenzyl)phthalazin-1(2H)-one]",inhibition at 0.01 µM,PARP-1,81%
same,melting point,,256 to 258 °C
same,inhibition at 0.1 µM,PI3Kα,17%
"Nc1cc(-c2nc3c(c(N4CCOCC4)n2)CCN(C(=O)c2cc(Cc4n[nH]c(=O)c5ccccc45)ccc2F)C3)ccc1F [I-7, 4-(3-(2-(3-amino-4-fluorophenyl)-4-morpholinyl-5,6,7,8-tetrahydropyrido[3,4-d]pyrimidin-7-formyl)-4-fluorobenzyl)phthalazin-1(2H)-one]",inhibition at 0.01 µM,PARP-1,83%
same,melting point,,236 to 239 °C
same,inhibition at 0.1 µM,PI3Kα,27%
"Nc1ccc(-c2nc3c(c(N4CCOCC4)n2)CCN(C(=O)c2cc(Cc4n[nH]c(=O)c5ccccc45)ccc2F)C3)c(F)c1 [I-6, 4-(3-(2-(4-amino-2-fluorophenyl)-4-morpholinyl-5,6,7,8-tetrahydropyrido[3,4-d]pyrimidin-7-formyl)-4-fluorobenzyl)phthalazin-1(2H)-one]",inhibition at 0.01 µM,PARP-1,89%
same,melting point,,204 to 206 °C
same,inhibition at 0.1 µM,PI3Kα,24%
"C[C@H]1COCCN1c1nc(-c2cnc(N)nc2)nc2c1CCN(C(=O)c1cc(Cc3n[nH]c(=O)c4ccccc34)ccc1F)C2 [I-11, (S)-4-(3-(2-(2-aminopyrimidin-5-yl)-4-(3-methylmorpholinyl)-5,6,7,8-tetrahydropyrido [3,4-d]pyrimidin-7-formyl)-4-fluorobenzyl)phthalazin-1(2H)-one]",pIC50,PARP-1,9.42
same,inhibition at 0.01 µM,PARP-1,94%
same,melting point,,214 to 216 °C
same,pIC50,[1],6.13
same,pIC50,"[1]; Homo sapiens, MDA-MB-468, 72 h",> 6.00
same,pIC50,PI3Kα,7.53
same,inhibition at 0.1 µM,PI3Kα,67%
"Nc1cc(C(F)(F)F)c(-c2cc(N3CCOCC3)nc(N3CCOCC3)n2)cn1 [BKM120, reference compound]",Tumor Volumes,"[2]; 0 day, 27.5 mg/kg",94.67 mm^3
same,Tumor Volumes,"[2]; 6 days, 27.5 mg/kg",203.83 mm^3
same,Tumor Volumes,"[2]; 12 days, 27.5 mg/kg",294.34 mm^3
same,Tumor Volumes,"[2]; 18 days, 27.5 mg/kg",388.09 mm^3
same,Tumor Volumes,"[2]; 24 days, 27.5 mg/kg",525.13 mm^3
same,Tumor Volumes,"[2]; 30 days, 27.5 mg/kg",677.51 mm^3
same,Tumor Volumes,"[2]; 34 days, 27.5 mg/kg",777.59 mm^3
same,Tumor weights,[2]; 27.5 mg/kg,1.36
"O=C(c1cc(Cc2n[nH]c(=O)c3ccccc23)ccc1F)N1CCc2c(nc(-c3ccc4[nH]ccc4c3)nc2N2CCOCC2)C1 [I-9, 4-(3-(2-(1H-indole-5-yl)-4-morpholinyl-5,6,7,8-tetrahydropyrido[3,4-d]pyrimidin-7-formyl)-4-fluorobenzyl)phthalazin-1(2H)-one]",inhibition at 0.01 µM,PARP-1,85%
same,melting point,,238 to 240 °C
same,inhibition at 0.1 µM,PI3Kα,30%
"O=C(CN1CCOCC1)Nc1cc(C(F)(F)F)c(-c2nc3c(c(N4CCOCC4)n2)CCN(C(=O)c2cc(Cc4n[nH]c(=O)c5ccccc45)ccc2F)C3)cn1 [I-4, N-(5-(7-(2-fluoro-5-((4-oxo-3,4-dihydrophthalazin-1-yl)methyl)benzoyl)-4-morpholinyl-5,6,7,8-tetrahydropyrido[3,4-cl]pyrimidin-2-yl)-4-(trifluoromethyl)pyridin-2-yl)-2-morpholinyl acetamide]",inhibition at 0.01 µM,PARP-1,67%
same,inhibition at 0.1 µM,PI3Kα,53%
"O=C(c1cc(Cc2n[nH]c(=O)c3ccccc23)ccc1F)N1CCc2c(nc(-c3cccc4[nH]ccc34)nc2N2CCOCC2)C1 [I-10, 4-(3-(2-(1H-indole-4-yl)-4-morpholinyl-5,6,7,8-tetrahydropyrido[3,4-d]pyrimidin-7-formyl)-4-fluorobenzyl)phthalazin-1(2H)-one]",inhibition at 0.01 µM,PARP-1,88%
same,inhibition at 0.1 µM,PI3Kα,15%
"O=C(c1cc(Cc2n[nH]c(=O)c3ccccc23)ccc1F)N1CCN(C(=O)C2CC2)CC1 [Olaparib, reference compound]",Tumor Volumes,"[2]; 0 day, 50 mg/kg (I-1: medium)",96.41 mm^3
same,Tumor Volumes,"[2]; 6 days, 50 mg/kg (I-1: medium)",222.00 mm^3
same,Tumor Volumes,"[2]; 12 days, 50 mg/kg (I-1: medium)",324.20 mm^3
same,Tumor Volumes,"[2]; 18 days, 50 mg/kg (I-1: medium)",422.84 mm^3
same,Tumor Volumes,"[2]; 24 days, 50 mg/kg (I-1: medium)",566.86 mm^3
same,Tumor Volumes,"[2]; 30 days, 50 mg/kg (I-1: medium)",718.76 mm^3
same,Tumor Volumes,"[2]; 34 days, 50 mg/kg (I-1: medium)",834.87 mm^3
same,Tumor weights,[2]; 50 mg/kg (I-1: medium),1.55
